Measured values from patent US7078380B2, “Antibacterial agents comprising conjugates of glycopeptides and peptidic membrane associating elements” (priority 2000, dated 2006).
In brackets after ≈: the same amount, converted by molar mass. Read-outs that look alike come from different tables or passages of the source. Positions of bridges follow the written chain, without caps; N, C: chain ends. Residues, ends and D or L forms follow the SMILES beside them. Chains are numbered I, II in the order given. *: point of attachment. Cys(free,S-linked) = N[C@@H](CS*)C(=O)O; Myristoyl = CCCCCCCCCCCCCC(=O)*; SPy = c1ccc(S*)nc1

Columns and labels:
[1] = system: Enterococcus faecalis V 583 (Van B resistant phenotype); settings: E. faecalis V 583
Description: (§1) Compounds were tested for antimicrobial activity against a variety of bacterial strains that included one or more of the following microorganisms: Escherichia coli strain TG1, Bacillus subtilis strain 168S, Staphylococcus aureus H, Enterococcus faecium STR 207 (Van A resistant phenotype), Enrterococcus faecium STR211 (Vancomycin sensitive phenotype), and Enterococcus faecalis V 583 (Van B resistant phenotype). For the testing of compounds for antimicrobial activity against E. coli and B. subtilis cultures of each bacterial strain were diluted in 2.5 mL of fresh LB broth to approximately 5×10^6 cells/mL for assay. […] The cultures were grown with shaking for up to 16 h at 37° C. for E. coli cultures and 30° C. for B. subtilis cultures. Antibacterial activity was determined from inspection of the turbidity of the different cultures and from determination of the optical density of the cultures at a wavelength of 600 nm. For the testing of compounds for antimicrobial activity against E. Faecium STR 207, E. faecium 211, E. faecalis V 583, and S. aureus H, a different procedure was used. These microorganisms were cultured in brain heart/0.5% yeast extract (BHY) broth and incubated overnight at 37° C. A sample of each culture was then diluted 40-fold in fresh BHY broth and incubated at 37° C. for 1 h. The resultant mid-log phase cultures were diluted to 106 cfu/mL, then added to wells of 96-well polypropylene plates. […] The 96-well plates were covered and incubated at 37° C. overnight. Minimum inhibitory concentrations were determined by inspection of turbidity after incubation.

[2] = system: Enterococcus faecium STR 211 (Vancomycin sensitive phenotype)
Description: as §1

Staphylococcus aureus H = system: Staphylococcus aureus H
Description: as §1

[3] = system: Bacillus subtilis strain 168S
Description: Compounds were tested for antimicrobial activity against a variety of bacterial strains that included one or more of the following microorganisms: Escherichia coli strain TG1, Bacillus subtilis strain 168S, Staphylococcus aureus H, Enterococcus faecium STR 207 (Van A resistant phenotype), Enrterococcus faecium STR211 (Vancomycin sensitive phenotype), and Enterococcus faecalis V 583 (Van B resistant phenotype). For the testing of compounds for antimicrobial activity against E. coli and B. subtilis cultures of each bacterial strain were diluted in 2.5 mL of fresh LB broth to approximately 5×10^6 cells/mL for assay. […] Antibacterial activity was determined from inspection of the turbidity of the different cultures and from determination of the optical density of the cultures at a wavelength of 600 nm. For the testing of compounds for antimicrobial activity against E. Faecium STR 207, E. faecium 211, E. faecalis V 583, and S. aureus H, a different procedure was used. These microorganisms were cultured in brain heart/0.5% yeast extract (BHY) broth and incubated overnight at 37° C. A sample of each culture was then diluted 40-fold in fresh BHY broth and incubated at 37° C. for 1 h. The resultant mid-log phase cultures were diluted to 106 cfu/mL, then added to wells of 96-well polypropylene plates. […] The 96-well plates were covered and incubated at 37° C. overnight. Minimum inhibitory concentrations were determined by inspection of turbidity after incubation.

[4] = system: Escherichia coli strain TG1
Description: as §1

[5] = system: Enterococcus faecium STR 207 (Van A resistant phenotype); settings: E. faecium STR 207
Description: as §1

physchem = settings: dimethylsulphoxide
Description: The 2-thiopyridyl content of the peptide was measured by dissolving it to around 0.03 mM to 0.2 mM in 0.1 M Sodium Borate pH 8.0 and reducing by addition of dithiothreitol to 5 mM. The change in optical density at 343 nm was used to calculate the amount of pyridine 2-thione released using an extinction coefficient at this wavelength of 8080 cm−1 M−1.

Haemolysis assay = format: cell-based; settings: sensitised sheep erythrocytes, 1 hour at 37° C., printed μM or uM, read-out: LC50 (concentration of compound required to give 50% lysis)
Description: (§2) Lysis of sensitised sheep erythrocytes was measured using a standard haemolytic assay using a v-bottom microtitre plate format as follows:
(§3) 50 microlitres of a range of concentrations of compound diluted in Hepes buffer were mixed with 100 microlitres of sensitised sheep erythrocytes and then incubated for 1 hour at 37° C. Samples were spun at 1600 rpm at ambient temperature for 3 minutes before transferring 150 microlitres of supernatant to a flat bottom microtitre plate and determining the absorption at 405 or 410 nm. Maximum lysis (Amax) was determined by incubating serum with erythrbcytes in the presence of human serum diluted 1:400 (final concentration in assay mixture) in 0.1 M Hepes/0.15 M NaCl/0.1% gelatin pH 7.4. Background lysis (Ao) was determined by incubating erythrocytes in the absence of any serum or compound, using PBS as a control.

[6] = system: sensitised sheep erythrocytes; assay: Haemolysis assay; format: cell-based; settings: 1 hour at 37° C., printed μM or uM, read-out: LC50 (concentration of compound required to give 50% lysis)
Description: as §2, §3

[7] = STR 211 (Vancomycin sensitive phenotype)

Row | SMILES | minimum inhibitory concentration [1] | minimum inhibitory concentration [2, 7] | minimum inhibitory concentration (Staphylococcus aureus H; H) | minimum inhibitory concentration to prevent the growth of B. subtilis strain 168S ([3]; 6 h) | minimum inhibitory concentration to prevent the growth of B. subtilis strain 168S ([3]; 24 h) | minimum inhibitory concentration to prevent the growth of E. coli strain TG1 ([4]; strain TG1, 6 h) | minimum inhibitory concentration to prevent the growth of E. coli strain TG1 ([4]; strain TG1, 16 h) | minimum inhibitory concentration [5] | solubility (physchem) | CC50 at 1 hour (Haemolysis assay) | minimum inhibitory concentration ([2]; E. faecium STR 211) | minimum inhibitory concentration (Staphylococcus aureus H; S. aureus H) | CC50 [6]
1 | CCCCCCCCCCCCCC(=O)NCC(=O)N[C@@H](CO)C(=O)N[C@@H](CO)C(=O)N[C@@H](CCCCN)C(=O)N[C@@H](CO)C(=O)N1CCC[C@H]1C(=O)N[C@@H](CO)C(=O)N[C@@H](CCCCN)C(=O)N[C@@H](CCCCN)C(=O)N[C@@H](CCCCN)C(=O)N[C@@H](CCCCN)C(=O)N[C@@H](CCCCN)C(=O)N[C@@H](CCCCN)C(=O)N1CCC[C@H]1C(=O)NCC(=O)N[C@@H](CC(=O)O)C(=O)N[C@@H](CSSC[C@H](N)C(=O)O)C(N)=O [APT541] (Myristoyl-GSSKSPSKKKKKKPGDC(Cys(free,S-linked))-NH2) | 256 µg/mL (≈ 121 µM) | 64 µg/mL (≈ 30.2 µM) | 64 µg/mL (≈ 30.2 µM) |  |  |  |  |  |  |  |  |  | 
2 | CCCCCCCCCCCCCC(=O)NCC(=O)N[C@@H](CO)C(=O)N[C@@H](CO)C(=O)N[C@@H](CCCCN)C(=O)N[C@@H](CO)C(=O)N1CCC[C@H]1C(=O)N[C@@H](CO)C(=O)N[C@@H](CCCCN)C(=O)N[C@@H](CCCCN)C(=O)N[C@@H](CCCCN)C(=O)N[C@@H](CCCCN)C(=O)N[C@@H](CCCCN)C(=O)N[C@@H](CCCCN)C(=O)N1CCC[C@H]1C(=O)NCC(=O)N[C@@H](CC(=O)O)C(=O)N[C@@H](CSSc1ccccn1)C(N)=O [APT542] (Myristoyl-GSSKSPSKKKKKKPGDC(SPy)-NH2) | 256 µg/mL (≈ 121 µM) | 32 µg/mL (≈ 15.2 µM) | 64 µg/mL (≈ 30.4 µM) | 3 µg/mL | 22 µg/mL | 22 µg/mL | 67 µg/mL | 64 µg/mL (≈ 30.4 µM) | ≥ 10000 µg/mL |  |  |  | 
3 | CCCCCCCCCCCCCC(=O)NCC(=O)N[C@@H](CO)C(=O)N[C@@H](CO)C(=O)N[C@@H](CCCCN)C(=O)N[C@@H](CO)C(=O)N1CCC[C@H]1C(=O)N[C@@H](CO)C(=O)N[C@@H](CCCCN)C(=O)N[C@@H](CC(=O)O)C(=O)N[C@@H](CCCCN)C(=O)N[C@@H](CC(=O)O)C(=O)N[C@@H](CCCCN)C(=O)N[C@@H](CC(=O)O)C(=O)N1CCC[C@H]1C(=O)NCC(=O)N[C@@H](CC(=O)O)C(=O)N[C@@H](CSSCCNC(=O)[C@H]1NC(=O)[C@H]2NC(=O)[C@H](NC(=O)[C@@H]3NC(=O)[C@H](CC(N)=O)NC(=O)[C@H](NC(=O)[C@@H](CC(C)C)NC)[C@H](O)c4ccc(c(Cl)c4)Oc4cc3cc(c4O[C@@H]3O[C@H](CO)[C@@H](O)[C@H](O)[C@H]3O[C@H]3C[C@](C)(N)[C@H](O)[C@H](C)O3)Oc3ccc(cc3Cl)[C@H]2O)c2ccc(O)c(c2)-c2c(O)cc(O)cc21)C(N)=O [APT2041] | 16 µg/mL (≈ 4.62 µM) |  |  |  |  |  |  | 16 µg/mL (≈ 4.62 µM) |  | 4.5 µM | 4 µg/mL (≈ 1.15 µM) | 8 µg/mL (≈ 2.31 µM) | 
4 | CN[C@H](CC(C)C)C(=O)N[C@H]1C(=O)N[C@@H](CC(N)=O)C(=O)N[C@H]2C(=O)N[C@H]3C(=O)N[C@H](C(=O)N[C@H](C(=O)NCCS)c4cc(O)cc(O)c4-c4cc3ccc4O)[C@H](O)c3ccc(c(Cl)c3)Oc3cc2cc(c3O[C@@H]2O[C@H](CO)[C@@H](O)[C@H](O)[C@H]2O[C@H]2C[C@](C)(N)[C@H](O)[C@H](C)O2)Oc2ccc(cc2Cl)[C@H]1O.Cl [APT2035] | 16 µg/mL |  |  |  |  |  |  |  |  |  | 2 µg/mL | 8 µg/mL | > 166 µM
5 | CCCCCCCCCCCCCC(=O)NCC(=O)N[C@@H](CO)C(=O)N[C@@H](CO)C(=O)N[C@@H](CCCCN)C(=O)N[C@@H](CO)C(=O)N1CCC[C@H]1C(=O)N[C@@H](CO)C(=O)N[C@@H](CCCCN)C(=O)N[C@@H](CCCCN)C(=O)N[C@@H](CCCCN)C(=O)N[C@@H](CCCCN)C(=O)N[C@@H](CCCCN)C(=O)N[C@@H](CCCCN)C(=O)N1CCC[C@H]1C(=O)NCC(=O)N[C@@H](CC(=O)O)C(=O)N[C@@H](CSSC[C@H](NC(=O)[C@H](CC(=O)O)NC(=O)CNC(=O)[C@@H]1CCCN1C(=O)[C@H](CCCCN)NC(=O)[C@H](CCCCN)NC(=O)[C@H](CCCCN)NC(=O)[C@H](CCCCN)NC(=O)[C@H](CCCCN)NC(=O)[C@H](CCCCN)NC(=O)[C@H](CO)NC(=O)[C@@H]1CCCN1C(=O)[C@H](CO)NC(=O)[C@H](CCCCN)NC(=O)[C@H](CO)NC(=O)[C@H](CO)NC(=O)CNC(=O)CCCCCCCCCCCCC)C(N)=O)C(N)=O [APT540] (I: Myristoyl-GSSKSPSKKKKKKPGDC-NH2 / II: Myristoyl-GSSKSPSKKKKKKPGDC-NH2; disulfide I:17-II:17) |  |  |  | 7 µg/mL | 7 µg/mL | 67 µg/mL | 200 µg/mL |  |  |  |  |  | 
6 | CCCCCCCCCCCCCC(=O)NCC(=O)N[C@@H](CO)C(=O)N[C@@H](CO)C(=O)N[C@@H](CCCCN)C(=O)N[C@@H](CO)C(=O)N1CCC[C@H]1C(=O)N[C@@H](CO)C(=O)N[C@@H](CCCCN)C(=O)N[C@@H](CCCCN)C(=O)N[C@@H](CCCCN)C(=O)N[C@@H](CCCCN)C(=O)N[C@@H](CCCCN)C(=O)N[C@@H](CCCCN)C(=O)N1CCC[C@H]1C(=O)NCC(=O)N[C@@H](CC(=O)O)C(=O)N[C@@H](CSSCCNC(=O)[C@H]1NC(=O)[C@H]2NC(=O)[C@H](NC(=O)[C@@H]3NC(=O)[C@H](CC(N)=O)NC(=O)[C@H](NC(=O)[C@@H](CC(C)C)NC)[C@H](O)c4ccc(c(Cl)c4)Oc4cc3cc(c4O[C@@H]3O[C@H](CO)[C@@H](O)[C@H](O)[C@H]3O[C@H]3C[C@](C)(N)[C@H](O)[C@H](C)O3)Oc3ccc(cc3Cl)[C@H]2O)c2ccc(O)c(c2)-c2c(O)cc(O)cc21)C(N)=O [APT2036] | 8 µg/mL (≈ 2.28 µM) |  |  |  |  |  |  | 8 µg/mL (≈ 2.28 µM) |  | 71 µM | 8 µg/mL (≈ 2.28 µM) | 4 µg/mL (≈ 1.14 µM) | 
7 | CN[C@H](CC(C)C)C(=O)N[C@H]1C(=O)N[C@@H](CC(N)=O)C(=O)N[C@H]2C(=O)N[C@H]3C(=O)N[C@H](C(=O)N[C@H](C(=O)NCCSSc4ccccn4)c4cc(O)cc(O)c4-c4cc3ccc4O)[C@H](O)c3ccc(c(Cl)c3)Oc3cc2cc(c3O[C@@H]2O[C@H](CO)[C@@H](O)[C@H](O)[C@H]2O[C@H]2C[C@](C)(N)[C@H](O)[C@H](C)O2)Oc2ccc(cc2Cl)[C@H]1O.Cl [APT2033] | 32 µg/mL |  |  |  |  |  |  | 256 µg/mL |  |  | 2 µg/mL | 4 µg/mL | > 166 µM
